Source: article PMC6368365, “Didehydro-Cortistatin A Inhibits HIV-1 by Specifically Binding to the Unstructured Basic Region of Tat” (mBio, 2019)

System: recombinant Tat transactivation of HIV-1 transcription in OM10.1 cells
Experiment: Transactivation assay with recombinant Tat in OM10.1 cell model of HIV-1 latency
Format: cell-based
Conditions: Tat 1 μg, dCA 250 nM
From the text: The production of functional recombinant HIV-1 Tat in Escherichia coli is not trivial as the proper folding of Tat is extremely important for activity, and when expressed by itself, Tat agglomerates mostly because of oxidation of the cysteine residues in the cysteine region. Tat can also adhere to different surfaces and anionic polymers via its charged and hydrophobic residues ([21], [22]). We produced and purified recombinant HIV Tat HXB3 (residues 1 to 89) with a 6×His tag in the C-terminus in E. coli. For this, we have partially optimized the arginine codon usage and changed the rare AGA into codon CGT at arginine positions 7, 53, 56, and 87 of Tat (Fig. 1A). […] After Tat purification using nickel affinity chromatography followed by size exclusion filtration, Tat protein size was analyzed by SDS-PAGE followed by Coomassie blue staining (Fig. 1B). The specificity of the bands was confirmed by Western blotting using anti-Tat serum and anti-His antibody (Fig. 1B). The purity of Tat was further verified by size exclusion chromatography and high-performance liquid chromatography (HPLC) (Fig. 1C and D). […]
FIG 1 Purity and activity of the monomeric His-tagged Tat HXB3 and analysis of its direct binding to dCA. […] Statistical significance was determined using one-way ANOVA with post hoc Tukey’s test. ns, not significant; ***, P < 0.0001; *, P < 0.01. […]

Row | SMILES | inhibition of recombinant Tat transactivation (HIV mRNA)
1 | C[C@@](Cc1ccc(O)c(O)c1)(NN)C(=O)O.O [SCM, S-(−)-carbidopamonohydrate, reference compound] | no activity
2 | CN(C)C1CC23CCC4(O2)C(=CCC2(C)C(c5ccc6ccncc6c5)=CCC24)C=C3C(O)C1O (centres unmarked) [dCA, didehydro-cortistatin A] | inhibited transcriptional activity of Tat
